The values below come from patent US20220331274A1, “METHODS OF TREATING CANCER” (Inspirna, Inc., priority 2019, published 2022).

The conditions of series [1]: cited from earlier work.
Series [2] concerns Xenograft A549. Put plainly: Example 2: Xenograft A549 mice, tumor volume. In kind it is in vivo. Particulars: Group 02: 2 mg/kg cisplatin, corn oil. The method, then: Protocol: Five groups of Xenograft A549 mice were treated and tumor volume tracked for twenty-two days. Group 01 was administered 0.9% Saline, 0 mg/kg cisplatin, Corn Oil, and 0 mg/kg 2-[3-[(3R)-3-[[2-chloro-3-(trifluoromethyl)phenyl]methyl-(2,2-diphenylethyl)amino]butoxy]phenyl]acetic acid; Group 02 was administered 2 mg/kg Cisplatin, Corn Oil, and 0 mg/kg 2-[3-[(3R)-3-[[2-chloro-3-(trifluoromethyl)phenyl]methyl-(2,2-diphenylethyl)amino]butoxy]phenyl]acetic acid; Group 03 was administered 0.9% Saline, 0 mg/kg cisplatin, and 50 mg/kg 2-[3-[(3R)-3-[[2-chloro-3-(trifluoromethyl)phenyl]methyl-(2,2-diphenylethyl)amino]butoxy]phenyl]acetic acid; Group 04 was administered 2 mg/kg cisplatin and 50 mg/kg 2-[3-[(3R)-3-[[2-chloro-3-(trifluoromethyl)phenyl]methyl-(2,2-diphenylethyl)amino]butoxy]phenyl]acetic acid twice per day daily for the entire treatment period; and Group 05 was administered 2 mg/kg cisplatin and 50 mg/kg 2-[3-[(3R)-3-[[2-chloro-3-(trifluoromethyl)phenyl]methyl-(2,2-diphenylethyl)amino]butoxy]phenyl]acetic acid twice per day for five continuous days followed by two days without for the entire treatment period.

For series [3] the following is noted: cited from earlier work. This is another data set of the same source.
The conditions of series [4]: cited from earlier work. This is another data set of the same source.
In series [5] the test system is BRAF wild-type human melanoma xenograft. Put plainly: BRAF wild-type human melanoma xenograft model. In kind it is in vivo. Particulars: 100 mg/kg in combination with dacarbazine. In general terms: In xenograft studies the graft and the host belong to different species.
Series [6] concerns mouse melanoma. The series can be described thus: syngeneic mouse melanoma model. In kind it is in vivo.

For the molecule `CC(=O)O[C@@]12CO[C@@H]1C[C@H](O)[C@@]1(C)C(=O)[C@H](O)C3=C(C)[C@@H](OC(=O)[C@H](O)[C@@H](NC(=O)OC(C)(C)C)c4ccccc4)C[C@@](O)([C@@H](OC(=O)c4ccccc4)[C@H]21)C3(C)C` [docetaxel, (2R,3S)—N-carboxy-3-phenylisoserine,N-tert-butyl ester, 13-ester with 5b-20-epoxy-1,2a,4,7b, 10b, 13a-hexahydroxytax-11-en-9-one 4-acetate 2-benzoate, trihydrate], the hepatotoxicity entry in series [1] (treatment with the partner drug) was “hepatotoxicity has been observed”.

In the case of “nivolumab: fully human immunoglobulin (Ig) G4 monoclonal antibody directed against programmed death-1 (PD-1)”, in series [1] (in vivo), the “hyperlipidemia in treated subjects” value is on record as “has also been reported” and the immune-mediated hepatitis entry was “immune-mediated hepatitis has been observed”.

In the case of `N.N.[Cl][Pt][Cl]` [cisplatin, reference compound], the mean tumor volume was 86.05 in series [2] (day 0, in mm³ (unit assumed)); 116.20 in series [2] (day 3); 196.48 in series [2] (day 6); 276.41 in series [2] (day 9, in mm³ (unit assumed)); 450.58 in series [2] (day 12, in mm³ (unit assumed)); 598.84 in series [2] (day 15, in mm³ (unit assumed)). The mean tumor volume was determined as 1239.53 in series [2] (day 19) and 1521.86 in series [2] (day 22).

Take `N.N.O=C([O-])C1(C(=O)[O-])CCC1.[Pt+2]` [Carboplatin, platinum, diammine[1,1-cyclobutanedicarboxylato(2-)-O,O′]-, (SP-4-2)]: in series [3], the “pH of a 1% solution” value is 5-7. Moreover, in series [4] (ethanol, acetone, dimethylacetamide), the “solubility in ethanol, acetone, and dimethylacetamide” value is on record as “virtually insoluble”. The solubility in water result in series [4] (water) is “approximately 14 mg/mL”.

On to `Cl.O=C(O)Cc1cccc(OCCCN(Cc2cccc(C(F)(F)F)c2Cl)CC(c2ccccc2)c2ccccc2)c1` [GW3965, 3-[3-[N-(2-Chloro-3-trifluoromethylbenzyl)-(2,2-diphenylethyl)amino]propyloxy]phenylacetic acid hydrochloride, reference compound], for which the anti-tumor efficacy entry in series [5] is “Additive anti-tumor efficacy”; in series [6] (100 mg/kg in combination with dacarbazine, syngeneic melanoma animal model), “Additive anti-tumor efficacy”. The tumor suppressive efficacy entry in series [6] (100 mg/kg in combination with anti-CTLA-4) is on record as “additive tumor suppressive efficacy”.

As for “ipilimumab: recombinant human IgG1 kappa monoclonal antibody that binds to CTLA-4”, the immune-mediated hepatitis result in series [1] (in vivo) is recorded as “immune-mediated hepatitis has been observed”.
